In ChEMBL document CHEMBL5465560, “Selectivity Literature for EUbOPEN Chemogenomic Library” (2024):
Values belong to the molecule of their own block, whether it stands above or below them.

Assays:
[1] = molecular target: T1, Interleukin-1 receptor-associated kinase 3 (Homo sapiens) (UniProt Q9Y616); details: at 10 µM
T1 sequence (whole entry): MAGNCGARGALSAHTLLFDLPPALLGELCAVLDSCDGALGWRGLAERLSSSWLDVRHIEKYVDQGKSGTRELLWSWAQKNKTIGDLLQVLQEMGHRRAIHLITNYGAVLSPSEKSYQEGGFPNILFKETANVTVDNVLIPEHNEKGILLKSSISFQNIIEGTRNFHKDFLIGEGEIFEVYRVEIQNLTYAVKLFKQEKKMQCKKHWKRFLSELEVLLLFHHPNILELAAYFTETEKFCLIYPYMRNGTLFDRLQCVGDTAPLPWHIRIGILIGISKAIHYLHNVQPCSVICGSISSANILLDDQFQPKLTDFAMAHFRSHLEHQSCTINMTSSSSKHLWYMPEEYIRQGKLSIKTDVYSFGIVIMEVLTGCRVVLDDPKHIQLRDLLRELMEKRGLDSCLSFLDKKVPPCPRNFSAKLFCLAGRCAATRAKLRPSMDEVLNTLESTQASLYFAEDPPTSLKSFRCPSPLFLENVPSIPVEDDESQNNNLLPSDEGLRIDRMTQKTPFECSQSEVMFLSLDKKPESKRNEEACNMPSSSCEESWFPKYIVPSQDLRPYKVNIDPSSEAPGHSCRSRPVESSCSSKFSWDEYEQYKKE

[2] = molecular target: T2, Phosphatidylinositol 5-phosphate 4-kinase type-2 gamma (Homo sapiens) (UniProt Q8TBX8); assay: Selectivity interaction (ActivX KiNativ screen (kinase selectivity in THP-1 cell lysates)) EUB0000639a PIP4K2C; assay type: subcellular; details: lysate, at 0.01 µM
T2 sequence (whole entry): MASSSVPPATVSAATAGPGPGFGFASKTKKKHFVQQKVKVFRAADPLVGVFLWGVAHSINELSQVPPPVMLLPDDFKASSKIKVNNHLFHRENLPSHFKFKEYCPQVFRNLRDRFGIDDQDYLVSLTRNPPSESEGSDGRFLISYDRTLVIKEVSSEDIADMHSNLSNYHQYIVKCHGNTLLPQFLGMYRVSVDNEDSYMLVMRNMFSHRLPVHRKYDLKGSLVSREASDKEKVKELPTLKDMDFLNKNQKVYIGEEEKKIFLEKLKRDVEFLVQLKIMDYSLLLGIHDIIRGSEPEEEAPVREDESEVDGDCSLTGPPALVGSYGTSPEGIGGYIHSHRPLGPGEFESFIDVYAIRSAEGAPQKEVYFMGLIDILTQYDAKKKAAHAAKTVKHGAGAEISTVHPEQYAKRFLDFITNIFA

[3] = molecular target: Serine/threonine-protein kinase PAK 3 (Homo sapiens) (UniProt O75914); assay: Selectivity interaction (KinomeScan (DiscoverX)) EUB0000695a PAK3; details: at 100 nM
[4] = molecular target: Serine/threonine-protein kinase PLK1 (Homo sapiens, UniProt P53350); assay: Selectivity interaction (KinomeScan (DiscoverX)) EUB0001049a PLK1; details: at 1 µM
[5] = molecular target: Serine/threonine-protein kinase MRCK alpha (Homo sapiens) (UniProt Q5VT25); assay: Selectivity interaction (KinomeScan (DiscoverX)) EUB0001079a CDC42BPA; details: at 1 µM
[6] = molecular target: T3, Inhibitor of nuclear factor kappa-B kinase subunit epsilon (Homo sapiens) (UniProt Q14164); assay: Selectivity interaction (KinomeScan (DiscoverX)) EUB0000229b IKBKE; details: at 10 µM
T3 sequence (whole entry): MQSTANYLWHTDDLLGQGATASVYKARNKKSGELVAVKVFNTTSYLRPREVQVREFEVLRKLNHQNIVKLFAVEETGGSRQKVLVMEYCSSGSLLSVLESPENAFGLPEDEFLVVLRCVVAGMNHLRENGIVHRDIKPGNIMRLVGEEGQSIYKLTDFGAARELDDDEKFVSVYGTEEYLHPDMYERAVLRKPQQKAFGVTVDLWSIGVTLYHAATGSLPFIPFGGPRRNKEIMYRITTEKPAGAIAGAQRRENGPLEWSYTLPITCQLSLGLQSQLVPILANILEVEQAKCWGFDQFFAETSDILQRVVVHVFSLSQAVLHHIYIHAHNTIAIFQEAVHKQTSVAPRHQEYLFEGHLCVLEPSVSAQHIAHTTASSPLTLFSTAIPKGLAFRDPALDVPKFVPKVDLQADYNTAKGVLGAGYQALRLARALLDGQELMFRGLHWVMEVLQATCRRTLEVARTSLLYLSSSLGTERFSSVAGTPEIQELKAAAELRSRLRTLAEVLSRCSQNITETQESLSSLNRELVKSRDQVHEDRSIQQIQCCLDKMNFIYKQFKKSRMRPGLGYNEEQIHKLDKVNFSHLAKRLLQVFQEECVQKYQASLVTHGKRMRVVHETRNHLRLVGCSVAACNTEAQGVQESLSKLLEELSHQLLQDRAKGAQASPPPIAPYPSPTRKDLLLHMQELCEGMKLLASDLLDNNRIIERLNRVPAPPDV

Sequence of Serine/threonine-protein kinase PLK1 (P53350 whole entry): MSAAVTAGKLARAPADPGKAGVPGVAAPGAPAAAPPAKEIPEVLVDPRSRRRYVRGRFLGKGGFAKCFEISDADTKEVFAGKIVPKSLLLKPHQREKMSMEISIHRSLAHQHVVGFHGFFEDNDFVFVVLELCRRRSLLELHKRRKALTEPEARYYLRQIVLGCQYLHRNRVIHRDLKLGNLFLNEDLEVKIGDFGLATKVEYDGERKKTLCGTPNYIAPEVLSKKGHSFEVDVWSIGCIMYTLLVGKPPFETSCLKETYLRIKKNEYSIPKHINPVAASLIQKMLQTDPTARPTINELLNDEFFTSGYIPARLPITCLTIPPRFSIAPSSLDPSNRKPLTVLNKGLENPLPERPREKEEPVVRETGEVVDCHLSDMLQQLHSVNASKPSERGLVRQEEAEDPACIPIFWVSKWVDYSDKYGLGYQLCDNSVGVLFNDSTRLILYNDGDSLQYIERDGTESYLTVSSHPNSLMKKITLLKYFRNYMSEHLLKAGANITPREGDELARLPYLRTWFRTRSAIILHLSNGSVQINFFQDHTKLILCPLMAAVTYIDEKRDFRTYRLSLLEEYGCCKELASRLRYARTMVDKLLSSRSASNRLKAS
Sequence of Serine/threonine-protein kinase PAK 3 (Homo sapiens) (O75914 whole entry, looked up): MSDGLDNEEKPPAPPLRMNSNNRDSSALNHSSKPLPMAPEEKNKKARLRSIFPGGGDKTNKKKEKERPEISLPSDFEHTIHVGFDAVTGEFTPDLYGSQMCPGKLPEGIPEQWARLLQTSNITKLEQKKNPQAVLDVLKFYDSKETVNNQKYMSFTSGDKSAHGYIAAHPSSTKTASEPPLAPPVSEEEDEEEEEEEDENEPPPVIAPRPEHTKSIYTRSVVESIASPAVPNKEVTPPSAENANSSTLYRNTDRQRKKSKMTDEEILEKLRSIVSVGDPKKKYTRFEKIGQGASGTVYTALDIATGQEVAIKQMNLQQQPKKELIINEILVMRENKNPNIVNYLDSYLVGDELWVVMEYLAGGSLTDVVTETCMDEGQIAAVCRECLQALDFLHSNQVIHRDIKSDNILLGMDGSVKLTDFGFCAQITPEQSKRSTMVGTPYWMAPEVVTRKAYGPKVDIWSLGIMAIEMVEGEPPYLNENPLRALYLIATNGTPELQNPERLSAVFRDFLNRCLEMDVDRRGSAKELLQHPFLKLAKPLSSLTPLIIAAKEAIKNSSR
Sequence of Serine/threonine-protein kinase MRCK alpha (Homo sapiens) (Q5VT25 whole entry): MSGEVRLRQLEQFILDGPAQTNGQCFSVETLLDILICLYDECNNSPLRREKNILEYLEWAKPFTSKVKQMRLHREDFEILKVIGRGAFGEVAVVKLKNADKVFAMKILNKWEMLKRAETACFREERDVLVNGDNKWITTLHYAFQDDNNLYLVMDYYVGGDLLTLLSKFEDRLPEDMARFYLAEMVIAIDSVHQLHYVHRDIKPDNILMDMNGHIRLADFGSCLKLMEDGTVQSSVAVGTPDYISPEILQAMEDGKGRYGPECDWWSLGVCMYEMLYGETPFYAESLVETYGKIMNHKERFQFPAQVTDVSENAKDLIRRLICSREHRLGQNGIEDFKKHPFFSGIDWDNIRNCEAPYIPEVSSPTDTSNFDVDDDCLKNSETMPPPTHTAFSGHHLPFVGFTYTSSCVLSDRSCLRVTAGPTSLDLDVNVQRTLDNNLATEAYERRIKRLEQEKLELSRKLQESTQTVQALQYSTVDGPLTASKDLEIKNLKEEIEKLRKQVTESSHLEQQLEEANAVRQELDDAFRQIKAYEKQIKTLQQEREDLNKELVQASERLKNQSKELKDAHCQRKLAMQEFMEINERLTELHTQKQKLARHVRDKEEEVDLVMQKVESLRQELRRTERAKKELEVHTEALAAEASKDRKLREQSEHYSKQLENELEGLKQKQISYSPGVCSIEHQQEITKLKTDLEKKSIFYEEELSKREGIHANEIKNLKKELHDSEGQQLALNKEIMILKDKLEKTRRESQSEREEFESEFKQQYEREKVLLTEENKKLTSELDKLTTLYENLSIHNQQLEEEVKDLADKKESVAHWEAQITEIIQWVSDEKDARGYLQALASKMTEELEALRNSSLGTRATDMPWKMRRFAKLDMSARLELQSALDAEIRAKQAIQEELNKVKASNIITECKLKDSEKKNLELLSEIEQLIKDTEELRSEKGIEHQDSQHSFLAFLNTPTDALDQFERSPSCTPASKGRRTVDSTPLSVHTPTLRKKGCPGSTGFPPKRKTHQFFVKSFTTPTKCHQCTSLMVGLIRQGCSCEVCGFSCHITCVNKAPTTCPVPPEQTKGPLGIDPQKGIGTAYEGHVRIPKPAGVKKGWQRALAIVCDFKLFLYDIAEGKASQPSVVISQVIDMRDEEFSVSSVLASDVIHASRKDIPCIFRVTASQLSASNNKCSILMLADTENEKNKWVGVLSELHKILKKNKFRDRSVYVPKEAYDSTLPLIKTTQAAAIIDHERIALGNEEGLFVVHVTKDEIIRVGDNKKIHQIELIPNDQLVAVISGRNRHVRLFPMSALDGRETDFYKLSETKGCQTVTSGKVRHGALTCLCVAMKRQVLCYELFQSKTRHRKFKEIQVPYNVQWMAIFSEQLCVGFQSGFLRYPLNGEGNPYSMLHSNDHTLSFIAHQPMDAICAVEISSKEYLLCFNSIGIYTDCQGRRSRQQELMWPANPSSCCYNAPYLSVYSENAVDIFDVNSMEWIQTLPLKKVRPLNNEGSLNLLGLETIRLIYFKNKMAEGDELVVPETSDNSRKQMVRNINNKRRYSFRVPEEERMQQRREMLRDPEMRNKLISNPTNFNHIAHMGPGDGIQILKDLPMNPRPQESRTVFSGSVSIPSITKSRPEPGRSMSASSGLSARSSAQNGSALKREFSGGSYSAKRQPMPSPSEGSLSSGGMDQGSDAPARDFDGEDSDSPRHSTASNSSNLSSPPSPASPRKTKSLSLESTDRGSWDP

% of control [1]: 100%
SMILES: CCN(CC)CCCCNc1ncc2cc(-c3cc(OC)cc(OC)c3)c(NC(=O)NC(C)(C)C)nc2n1

% of inhibition [2]: 7.3%
SMILES: CC[C@@H]1[C@H](F)C(=O)N[C@@H]1COc1nccc2cc(C(N)=O)c(OC)cc12 [ZIMLOVISERTIB]

SMILES: Cc1cc(F)c(C(=O)Nc2cccc(-c3nncn3C(C)C)n2)cc1-n1cnc(C2CC2)c1
% of control [3]: 89%

SMILES: COc1cc(Nc2nc(C)cc(-c3cnn4nc(OC)ccc34)n2)cc(C(F)(F)F)c1
% of control [4]: 87%

SMILES: Nc1cnc(N2CCc3cc(S(=O)(=O)Nc4c(F)cc(Cl)cc4F)cc(N4CCCC4=O)c32)nc1 [TP-020n]
% of control [5]: 100%

SMILES: COc1cc(N(C)c2ccnc3ccc(C(F)(F)F)cc23)cc(OC)c1OC
% binding [6]: 84%
